How the values were obtained:
Assay in all cases: relative viability (nuclei count vs DMSO), 5 days (fraction); higher = more cells survive
Sorafenib + Vorinostat = compound: CNC(=O)c1cc(Oc2ccc(NC(=O)Nc3ccc(Cl)c(C(F)(F)F)c3)cc2)ccn1 [Sorafenib] + O=C(CCCCCCC(=O)Nc1ccccc1)NO [Vorinostat] (partner 1 µM)
Summary of the method: (§1)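 The day after seeding in 1536-well plates, lung cancer cell lines were treated by pin tool with a single drug, or with a fixed anchor-drug dose together with five library-drug doses (not always all listed) in √10 steps. After 5 days, a combined fix-and-stain solution (final 0.05% Triton X-100, 1% formaldehyde, 1 ug/ml Hoechst) was added. Nuclei counted on 4× images gave relative viability as treated counts over vehicle counts, reported as the median of duplicate plates.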

Sorafenib + Crizotinib = compound: CNC(=O)c1cc(Oc2ccc(NC(=O)Nc3ccc(Cl)c(C(F)(F)F)c3)cc2)ccn1 [Sorafenib] + C[C@@H](Oc1cc(-c2cnn(C3CCNCC3)c2)cnc1N)c1c(Cl)ccc(F)c1Cl [Crizotinib] (partner 1 µM)
Summary of the method: as §1

Sorafenib + Tozasertib = compound: CNC(=O)c1cc(Oc2ccc(NC(=O)Nc3ccc(Cl)c(C(F)(F)F)c3)cc2)ccn1 [Sorafenib] + Cc1cc(Nc2cc(N3CCN(C)CC3)nc(Sc3ccc(NC(=O)C4CC4)cc3)n2)n[nH]1 [Tozasertib] (partner 0.1 µM)
Summary of the method: as §1

Sorafenib + AZD7762 = compound: CNC(=O)c1cc(Oc2ccc(NC(=O)Nc3ccc(Cl)c(C(F)(F)F)c3)cc2)ccn1 [Sorafenib] + NC(=O)Nc1cc(-c2cccc(F)c2)sc1C(=O)N[C@H]1CCCNC1 [AZD7762] (partner 0.2 µM)
Summary of the method: as §1

Sorafenib + Linsitinib = compound: CNC(=O)c1cc(Oc2ccc(NC(=O)Nc3ccc(Cl)c(C(F)(F)F)c3)cc2)ccn1 [Sorafenib] + C[C@]1(O)C[C@@H](c2nc(-c3ccc4ccc(-c5ccccc5)nc4c3)c3c(N)nccn32)C1 [Linsitinib] (partner 1 µM)
Summary of the method: as §1

Cell Line | relative viability (Sorafenib + Vorinostat; first compound 0.08 µM) | relative viability (Sorafenib + Vorinostat; first compound 0.253 µM) | relative viability (Sorafenib + Vorinostat; first compound 2.53 µM) | relative viability (Sorafenib + Vorinostat; first compound 8 µM) | relative viability (Sorafenib + Crizotinib; first compound 0.08 µM) | relative viability (Sorafenib + Crizotinib; first compound 0.253 µM) | relative viability (Sorafenib + Crizotinib; first compound 2.53 µM) | relative viability (Sorafenib + Crizotinib; first compound 8 µM) | relative viability (Sorafenib + Tozasertib; first compound 0.08 µM) | relative viability (Sorafenib + Tozasertib; first compound 0.253 µM) | relative viability (Sorafenib + Tozasertib; first compound 2.53 µM) | relative viability (Sorafenib + Tozasertib; first compound 8 µM) | relative viability (Sorafenib + AZD7762; first compound 0.08 µM) | relative viability (Sorafenib + AZD7762; first compound 0.253 µM) | relative viability (Sorafenib + AZD7762; first compound 2.53 µM) | relative viability (Sorafenib + AZD7762; first compound 8 µM) | relative viability (Sorafenib + Linsitinib; first compound 0.08 µM) | relative viability (Sorafenib + Linsitinib; first compound 0.253 µM) | relative viability (Sorafenib + Linsitinib; first compound 2.53 µM) | relative viability (Sorafenib + Linsitinib; first compound 8 µM)
LC-2-ad | 0.723 | 0.674 | 0.617 | 0.514 | 0.496 | 0.447 | 0.511 | 0.421 | 0.405 | 0.478 | 0.478 | 0.462 | 0.942 | 0.86 | 0.967 | 0.769 | 0.935 | 0.798 | 0.673 | 0.659
LCLC-97TM1 | 0.68 | 0.674 | 0.65 | 0.576 | 0.326 | 0.358 | 0.364 | 0.121 | 0.191 | 0.232 | 0.195 | 0.188 | 0.311 | 0.139 | 0.229 | 0.214 | 0.224 | 0.161 | 0.153 | 0.184
LCLC-103H | 0.813 | 0.75 | 0.778 | 0.737 | 1.12 | 1.14 | 1.28 | 1.13 | 0.489 | 0.548 | 0.419 | 0.569 | 0.778 | 0.652 | 0.769 | 0.843 | 1.21 | 0.981 | 1.12 | 1.2
LK-2 | 0.371 | 0.298 | 0.143 | 0.148 | 0.208 |  | 0.263 | 0.256 | 0.17 | 0.226 | 0.17 | 0.153 | 0.394 | 0.338 | 0.413 | 0.134 | 0.672 | 0.364 | 0.451 | 0.516
LOU-NH91 | 1.03 | 0.881 | 1.11 | 0.493 | 0.841 | 0.751 | 0.844 | 0.654 | 0.69 | 0.681 | 0.767 | 0.647 | 0.804 | 0.721 | 0.876 | 0.671 | 1.07 | 0.973 | 1.13 | 0.873
LU99A | 0.487 | 0.445 | 0.437 | 0.192 | 0.541 | 0.547 | 0.6 | 0.543 | 0.305 | 0.278 | 0.247 | 0.26 | 0.369 | 0.307 | 0.321 | 0.155 | 0.533 | 0.488 | 0.507 | 0.496
LXF-289 | 0.758 | 0.757 | 0.848 | 0.681 | 0.816 | 0.814 | 0.824 | 0.757 | 0.178 | 0.184 | 0.177 | 0.174 | 1.12 | 1.11 | 1.17 | 1.05 | 0.977 | 0.986 | 1.04 | 0.894
NCI-H23 | 0.635 | 0.384 | 0.678 | 0.547 | 0.566 | 0.427 | 0.689 | 0.427 | 0.362 | 0.286 | 0.276 | 0.219 | 0.193 | 0.323 | 0.229 | 0.159 | 0.626 | 0.439 | 0.553 | 0.512
NCI-H322M | 1.02 | 0.886 | 1.02 | 1.17 | 0.945 | 0.848 | 0.894 | 0.859 | 0.512 | 0.394 | 0.527 | 0.475 | 0.65 | 0.511 | 0.533 | 0.595 | 0.886 | 1.05 | 0.912 | 0.984
NCI-H358 | 0.666 | 0.712 | 0.594 | 0.208 | 0.56 | 0.72 | 0.713 | 0.292 | 0.112 | 0.0906 | 0.0966 | 0.073 | 0.539 |  | 0.79 | 0.368 | 0.763 | 0.85 | 0.748 | 0.255
NCI-H441 | 0.638 | 0.756 | 0.547 | 0.47 | 0.727 | 0.64 | 0.532 | 0.473 | 0.644 |  | 0.542 | 0.386 | 1.03 | 0.946 | 0.841 | 0.855 | 0.563 | 0.417 | 0.355 | 0.302
NCI-H460 | 0.748 | 0.582 | 0.611 | 0.363 | 1.02 | 0.777 | 0.918 | 0.502 | 0.514 | 0.386 | 0.414 | 0.0751 | 0.586 | 0.444 |  | 0.414 | 0.838 | 0.771 | 0.684 | 0.215
NCI-H596 | 0.748 | 0.547 | 0.929 | 0.717 | 0.963 | 0.982 | 1.06 | 0.957 | 1.01 | 0.907 | 0.871 | 0.406 | 1.21 | 1 | 0.94 | 0.819 | 1.06 | 0.982 | 1.07 | 1.26
NCI-H647 | 0.473 | 0.453 | 0.257 | 0.0463 | 1.05 | 0.972 | 0.867 | 0.395 | 0.246 | 0.218 | 0.165 | 0.0549 | 0.415 | 0.298 | 0.64 | 0.35 | 1.16 | 0.992 | 0.976 | 0.243
NCI-H650 | 0.855 | 0.257 | 0.371 | 0.449 | 0.777 | 0.563 | 0.735 | 0.595 | 0.718 | 0.659 | 0.62 | 0.592 | 1.31 | 0.691 | 0.96 | 0.936 | 0.81 | 0.664 | 0.776 | 0.716
NCI-H727 | 1.38 | 1.11 | 1.23 | 1.25 | 0.979 | 0.797 | 0.706 | 0.357 | 0.643 | 0.638 | 0.555 | 0.487 | 0.716 | 0.6 |  | 0.502 | 0.29 | 0.226 | 0.33 | 0.231
NCI-H838 |  | 0.798 | 0.882 | 0.503 | 0.931 | 0.946 | 0.991 | 0.903 | 0.278 | 0.261 | 0.284 | 0.197 | 0.971 | 0.93 |  | 0.923 | 1.1 |  | 1.24 | 0.485
NCI-H1355 | 0.752 | 0.563 | 0.662 | 0.505 | 1.16 | 1.04 | 1.04 | 1.11 | 0.55 | 0.592 | 0.416 | 0.354 | 0.805 | 0.713 | 0.651 | 0.546 | 0.925 | 0.823 | 0.785 | 0.781
NCI-H1437 | 0.782 | 0.783 | 0.705 | 0.307 | 0.941 | 0.827 | 0.844 | 0.496 | 0.419 | 0.384 | 0.416 | 0.291 | 1.23 | 1.05 | 1.13 | 0.539 | 0.989 | 1 | 0.657 | 0.244
NCI-H1651 | 0.504 | 0.461 | 0.6 | 0.542 | 0.863 | 0.866 | 0.845 | 0.877 | 0.833 | 0.643 | 0.698 | 0.445 | 0.537 | 0.362 | 0.399 | 0.322 | 1.14 | 0.885 | 0.91 | 0.396
NCI-H1666 | 1.01 | 0.873 | 1.05 | 0.966 | 1.01 | 0.899 |  | 0.487 | 0.681 | 0.641 | 0.581 | 0.503 | 0.865 | 0.778 | 0.797 | 0.719 | 0.927 | 0.82 | 0.656 | 0.611
NCI-H1734 | 0.936 | 0.708 | 0.752 | 0.631 | 0.746 | 0.625 | 0.66 | 0.426 | 0.266 | 0.224 | 0.249 | 0.212 | 0.572 | 0.497 | 0.505 |  | 0.967 | 0.836 | 0.841 | 0.742
NCI-H1755 | 0.81 | 0.702 | 0.843 | 0.549 | 0.917 | 0.817 | 0.874 | 0.615 | 0.498 | 0.532 | 0.471 | 0.456 | 0.474 | 0.383 | 0.504 | 0.312 | 1.03 | 1.02 | 0.971 | 0.743
NCI-H1915 | 0.444 | 0.364 | 0.355 | 0.582 | 0.892 | 0.786 | 0.829 | 0.907 | 0.454 | 0.409 | 0.397 | 0.374 | 0.722 | 0.51 | 0.558 | 0.669 | 1.06 | 0.952 | 0.949 | 1.15
NCI-H1944 | 0.539 | 0.497 | 0.626 | 0.417 | 1.12 | 1 | 1.08 | 0.912 | 0.281 | 0.292 | 0.266 | 0.206 | 0.584 | 0.453 | 0.679 | 0.31 | 1.21 | 1.24 | 1.3 | 1.09
NCI-H1975 | 0.788 | 0.787 | 0.72 | 0.436 | 0.988 | 1.03 | 0.985 | 0.466 | 0.873 | 0.704 | 0.643 | 0.162 | 0.807 | 0.633 | 0.803 | 0.809 | 1.01 | 1.02 | 1.08 | 0.491
NCI-H1993 | 0.973 | 0.726 | 1.1 | 0.633 | 0.988 | 1 | 1.08 | 0.851 | 0.601 | 0.565 | 0.584 | 0.608 | 0.793 | 0.763 | 0.913 | 0.397 | 0.774 | 0.675 |  | 0.819
